In US20230232827A1, “METHOD FOR C[…] RUST FUNGUS RESISTANT TO QoI FUNGICIDES” (SUMITOMO CHEMICAL COMPANY, LIMITED, priority 2020, published 2023):

What follows are compounds tested on soybean rust fungus (Phakopsora pachyrhizi) having an amino acid substitution of F129L in a mitochondrial cytochrome b protein (assay: Leaf disc test of control of soybean rust (lesion area) after spraying the test compound). Settings: Comparative Test Example 1, according to Test Example 1.
Type: in vivo
Procedure: A true leaf of a soybean (cultivar: Kurosengoku) was cut into a diameter of 1 cm to prepare each leaf disc. To each well of a 24 well microplate was dispensed 1 mL of an agar medium (agar concentration 1.2%), and then one of said leaf disc was placed on each well. To a mixture of Sorpol (registered trademark) 1200KX (0.5 μL), DMSO (4.5 μL), and xylene (5 μL) was added a DMSO solution (20 μL) comprising a test compound (10000 ppm), and the resulting mixture was mixed. The resulting mixture was diluted with ion exchange water to prepare a spray solution comprising a prescribed concentration of the test compound. Said spray solution was sprayed into each leaf disc at a ratio of 10 μL per leaf disc. After 1 day, an aqueous suspension of spores of soybean rust fungus (Phakopsora pachyrhizi) having an amino acid substitution of F129L in a mitochondrial cytochrome b protein (1.0×10^5/mL) was inoculated by spraying on each leaf disc. After the inoculation, the microplate was placed into an artificial climate chamber (Lighting: 6 hours, Lights-out: 18 hours, Temperature: 23° C., Humidity: 60%). After 1 day, the leaf discs were air-dried until water droplets on the surfaces of the leaf discs disappeared, and the microplate was placed into the artificial climate chamber again for 12 days. Then, lesion area of soybean rust was investigated. As a result, when the prescribed concentration was 50 ppm, each lesion area of leaf disc treated with any one of the Present compound 2 to 13, 15 to 30, 33 to 40, 42 to 49, 52 to 56, 58, 60, 65, 66, or 74 to 79 as the test compound was 30% or less relative to the lesion area of non-treated leaf disc. Here, the term of “non-treated” means that a spray solution comprising a test compound was not sprayed into a leaf disc.
Each test is carried out according to the Test Example 1 by using any one of the Present compound S as the test compound with a prescribed concentration of 12.5 ppm. As a result, control effects on soybean rust can be confirmed in the leaf discs treated with test compounds.
Each test is carried out according to the Test Example 1 by using any one of the Present compound S as the test compound with a prescribed concentration of 3.1 ppm. As a result, control effects on soybean rust can be confirmed in the leaf discs treated with test compounds.
Each test was carried out according to the Test Example 1 by using the Present compound 4, 3, 11, or 42, or azoxystrobin, dimoxystrobin, or metominostrobin as the test compound with a prescribed concentration of 50 ppm.
For `CO/C=C(/C(=O)OC)n1c2ccccc2c2ccc(Br)cc21` [Present compound 4], the “Lesion area (%) at the concentration of 50 ppm” value (“Lesion area (%)” below) was 0%.
In the case of `CNC(=O)/C(=N/OC)c1ccccc1COc1cc(C)ccc1C` [Dimoxystrobin, reference compound], the “Lesion area (%)” value is reported as 100%.
With `CO/C=C(/C(=O)OC)n1ncc2ccc(-c3ccccc3)cc21` [Present compound 3] the “Lesion area (%)” value was 0%.
For `CNC(=O)/C(=N/OC)c1ccccc1Oc1ccccc1` [Metominostrobin, reference compound], the “Lesion area (%)” value was 100%.
For `CO/C=C(/C(=O)OC)n1ccc2ccc(/C(C)=N/OC)cc21` [Present compound 42], the “Lesion area (%)” value was 0%.
For `CO/C=C(/C(=O)OC)n1ccc2ccc(C#CC3CC3)cc21` [Present compound 11], the “Lesion area (%)” value was 0%.
With `CO/C=C(/C(=O)OC)c1ccccc1Oc1cc(Oc2ccccc2C#N)ncn1` [Azoxystrobin, reference compound] the “Lesion area (%)” value was 100%.
